As a reminder, the ED50 is the dose at which the effect has come halfway, by size or by number of responders. A low value points to an effect at a small dose. One may read the IC50 as the concentration that gives 50% inhibition.

One test relates to Rat Paw Edema. Briefly: Rat Paw Edema Assay. The test is classed as in vivo. Conditions: male Sprague-Dawley rats, po 1 hr before carrageenan, paw volume increase 3 hr later. How it is done: Rat Paw Edema Assay-Protocol
Male Sprague-Dawley rats (150-200 g) were fasted overnight and were given po either vehicle (1% methocel or 5% Tween 80) or a test compound. One hr later, a line was drawn using a permanent marker at the level above the ankle in one hind paw to define the area of the paw to be monitored. The paw volume (V0) was measured using a plethysmometer (Ugo-Basile, Italy) based on the principle of water displacement. The animals were then injected subplantarly with […] of 1% carrageenan solution in saline (FMC Corp, Maine) into the paw using an insulin syringe with a 25-gauge needle (i.e. […] carrageenan per paw). Three hr later, the paw volume (V3) was measured and the increases in paw volume (V3 -V0) were calculated. The animals were sacrificed by CO2 aphyxiation and the absence or presence of stomach lesions scored. Data were compared with the vehicle-control values and percent inhibition calculated. Since a maximum of 60-70% inhibition (paw edema) was obtained with standard NSAIDs, ED50 values were used for comparison. All treatment groups were coded to eliminate observer bias.
On the technique in general: Carrageenan injected into the paw causes an acute inflammation.

Another test concerns the target T1, COX-2 (Homo sapiens, UniProt P35354).
T1 construct: incubation of human whole blood with LPS (lipopolysaccharide), which induces COX-2; from tissue; host or cells: fresh heparinized human whole blood from male and female volunteers, LPS-stimulated for 24 hours
T1 sequence (P35354 18-604): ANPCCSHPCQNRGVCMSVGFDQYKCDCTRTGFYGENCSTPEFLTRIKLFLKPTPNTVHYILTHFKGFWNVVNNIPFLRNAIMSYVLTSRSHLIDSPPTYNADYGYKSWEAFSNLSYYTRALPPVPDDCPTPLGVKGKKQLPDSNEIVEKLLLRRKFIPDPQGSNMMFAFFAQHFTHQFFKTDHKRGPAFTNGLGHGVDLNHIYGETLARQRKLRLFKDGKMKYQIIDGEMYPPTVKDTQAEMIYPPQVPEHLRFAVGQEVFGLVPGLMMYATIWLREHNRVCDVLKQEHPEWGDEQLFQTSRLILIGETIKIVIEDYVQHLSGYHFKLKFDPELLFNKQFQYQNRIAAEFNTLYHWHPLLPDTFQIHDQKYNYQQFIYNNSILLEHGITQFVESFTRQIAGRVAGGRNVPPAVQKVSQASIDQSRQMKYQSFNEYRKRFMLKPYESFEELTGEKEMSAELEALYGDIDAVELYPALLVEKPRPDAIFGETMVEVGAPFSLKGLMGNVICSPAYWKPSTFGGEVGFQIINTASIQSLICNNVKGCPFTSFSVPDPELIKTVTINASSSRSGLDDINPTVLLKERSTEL
Briefly: Human Whole Blood (HWB) Assay: COX-2 (LPS-induced PGE2 production). It counts as cell-based. Conditions: LPS-induced PGE2, 24 hours at 37° C. How it is done: Human Whole Blood (HWB) Assay Human whole blood provides a protein and cell-rich milieu appropriate for the study of biochemical efficacy of anti-inflammatory compounds such as selective COX-2 inhibitors. […] This is consistent with the observation that COX-2 inhibitors have no effect on PGE2 production in normal blood. These inhibitors are active only after incubation of human whole blood with LPS (lipopolysaccharide), which induces COX-2. This assay can be used to evaluate the inhibitory effect of selective COX-2 inhibitors on PGE2 production. As well, platelets in whole blood contain a large amount of the COX-1 enzyme. Immediately following blood clotting, platelets are activated through a thrombin-mediated mechanism. This reaction results in the production of thromboxane B2 (T×B2) via activation of COX-1. Thus, the effect of test compounds on T×B2 levels levels following blood clotting can be examined and used as an index for COX-1 activity. Therefore, the degree of selectivity by the test compound can be determined by measuring the levels of PGE2 after LPS induction (COX-2) and T×B2 following blood clotting (COX-1) in the same assay. A. COX-2 (LPS-induced PGE2 production) Fresh blood was collected in heparinized tubes by venipuncture from both male and female volunteers. The subjects had no apparent inflammatory conditions and had not taken any NSAIDs for at least 7 days prior to blood collection. Plasma was immediately obtained from a 2 mL blood aliquot to use as blank (basal levels of PGE2). The remaining blood was incubated with LPS ([…] final concentration, Sigma Chem, #L-2630 from E. coli; diluted in 0.1% BSA-Phosphate buffered saline) for […]. […] At the end of the incubation, the blood was centrifuged at 12,000×g for 5 minutes to obtain plasma. A […] aliquot of plasma was mixed with […] of methanol for protein precipitation. The supernatant was obtained and was assayed for PGE2 using a radioimmunoassay kit (Amersham, RPA#530) after conversion of PGE2 to its methyl oximate derivative according to the manufacturer's procedure. Compounds of the present invention are inhibitors of cyclooxygenase-2 and are thereby useful in the treatment of cyclooxygenase-2 mediated diseases as enumerated above. The activities of the compounds against cyclooxygenase may be seen in the representative results shown below. In the assay, inhibition is determined by measuring the amount of prostaglandin E2 (PGE2) synthesized in the presence of arachidonic acid, cyclooxygenase-1 or cyclooxygenase-2 and a putative inhibitor. The IC50 values represent the concentration of putative inhibitor required to return PGE2 synthesis to 50% of that obtained as compared to the uninhibited control.

The target in a further test is T2, COX-1 (Homo sapiens, UniProt P23219).
T2 construct: platelets in whole blood contain a large amount of the COX-1 enzyme; from tissue; host or cells: fresh human whole blood without anticoagulant, allowed to clot (platelets)
T2 sequence (P23219 24-599): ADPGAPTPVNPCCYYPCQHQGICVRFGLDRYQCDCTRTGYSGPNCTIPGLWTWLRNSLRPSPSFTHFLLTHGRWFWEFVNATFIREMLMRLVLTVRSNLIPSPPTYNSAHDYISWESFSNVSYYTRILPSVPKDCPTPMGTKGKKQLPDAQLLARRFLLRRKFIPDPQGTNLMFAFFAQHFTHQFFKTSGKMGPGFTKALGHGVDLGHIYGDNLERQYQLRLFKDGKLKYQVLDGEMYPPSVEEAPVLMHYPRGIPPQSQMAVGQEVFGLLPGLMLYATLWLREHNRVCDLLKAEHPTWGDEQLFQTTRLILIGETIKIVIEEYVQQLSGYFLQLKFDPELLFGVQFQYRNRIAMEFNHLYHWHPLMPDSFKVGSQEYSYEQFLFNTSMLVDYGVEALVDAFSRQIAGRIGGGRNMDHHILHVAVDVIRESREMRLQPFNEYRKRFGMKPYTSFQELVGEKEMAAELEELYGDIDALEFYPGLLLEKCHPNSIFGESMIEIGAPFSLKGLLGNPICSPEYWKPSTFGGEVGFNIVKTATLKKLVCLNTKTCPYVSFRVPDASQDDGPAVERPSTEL
Briefly: Human Whole Blood (HWB) Assay: COX-1 (Clotting-induced TxB2 production). The test is classed as cell-based. Conditions: clotting-induced TxB2, 1 hour at 37° C. How it is done:
Human Whole Blood (HWB) Assay
Human whole blood provides a protein and cell-rich milieu appropriate for the study of biochemical efficacy of anti-inflammatory compounds such as selective COX-2 inhibitors. […] This is consistent with the observation that COX-2 inhibitors have no effect on PGE2 production in normal blood. These inhibitors are active only after incubation of human whole blood with LPS (lipopolysaccharide), which induces COX-2. This assay can be used to evaluate the inhibitory effect of selective COX-2 inhibitors on PGE2 production. As well, platelets in whole blood contain a large amount of the COX-1 enzyme. Immediately following blood clotting, platelets are activated through a thrombin-mediated mechanism. This reaction results in the production of thromboxane B2 (T×B2) via activation of COX-1. […] Therefore, the degree of selectivity by the test compound can be determined by measuring the levels of PGE2 after LPS induction (COX-2) and T×B2 following blood clotting (COX-1) in the same assay. […]
Compounds of the present invention are inhibitors of cyclooxygenase-2 and are thereby useful in the treatment of cyclooxygenase-2 mediated diseases as enumerated above. […] In the assay, inhibition is determined by measuring the amount of prostaglandin E2 (PGE2) synthesized in the presence of arachidonic acid, cyclooxygenase-1 or cyclooxygenase-2 and a putative inhibitor. […]

As to `CC1(O)OC(=O)C(c2ccc(F)cc2)=C1c1ccc(S(C)(=O)=O)cc1` (centres unmarked) [Example 5, 3-(4-Fluorophenyl)-5-hydroxy-5-methyl-4-(4-(methylsulfonyl)phenyl)-2-(5H)-furanone], the ED50 in the test with Rat Paw Edema is 1.84 mg/kg. For the same compound, it took 1410 nM to reach half-maximal inhibition at COX-2 (IC50).

For the compound `CC1(O)OC(=O)C(c2ccccc2)=C1c1ccc(S(C)(=O)=O)cc1` (centres unmarked) [Example 4, 5-Hydroxy-5-methyl-4-(4-(methylsulfonyl)phenyl)-3-phenyl-2-(5H)-furanone], the 50% effect level with Rat Paw Edema (ED50) was put at a dose of 1.53 mg/kg. The same compound displayed an IC50 at COX-2 of 1270 nM.

Compound `COC1(C)OC(=O)C(c2ccc(F)cc2)=C1c1ccc(S(C)(=O)=O)cc1` (centres unmarked) [Example 15, 3-(4-Fluorophenyl)-5-methoxy-5-methyl-4-(4-(methylsulfonyl)phenyl)-2-(5H)-furanone] yielded an ED50 with Rat Paw Edema of 2.8 mg/kg. The half-inhibitory concentration (IC50) against COX-2 is less than 370 nM; on COX-1 it was more than 30000 nM.

As to `COC1(C)OC(=O)C(c2ccccc2)=C1c1ccc(S(C)(=O)=O)cc1` (centres unmarked) [Example 10, 5-Methoxy-5-methyl-4-(4-(methylsulfonyl)phenyl)-3-phenyl-2-(5H)-furanone], the ED50 in the test on Rat Paw Edema was 1.94 mg/kg. For the same compound, the IC50 against COX-2 was less than 370 nM.

In turn, `CC1(O)OC(=O)C(c2ccc(Cl)cc2)=C1c1ccc(S(C)(=O)=O)cc1` (centres unmarked) [Example 6, 3-(4-Chlorophenyl)-5-hydroxy-5-methyl-4-(4-(methylsulfonyl)phenyl)-2-(5H)-furanone] gave an ED50 with Rat Paw Edema of 1.41 mg/kg. For the same compound, the IC50 against COX-2 stood at 2420 nM.
